Laboratory results as given in US10851067B2, “Kv7 channel activators compositions and methods of use” (Knopp Biosciences LLC, priority 2018, dated 2020).

Biological target: Kv7.2/7.3 (Homo sapiens, UniProt O43525+O43526)
Assay: Kv7.2/7.3 Activation Assay, QPatch single concentration screen
Type: cell-based
Parameters: host or cells: HEK cells, tetracycline-inducible expression; key: 1.2-2.9 (+); 3-3.9 (++); >4 (+++) fold increase over baseline; O represents open channel at holding potential
Conditions: Kv7.2/Kv7.3 co-expressing HEK cells, compound concentration 3 μM, steady-state current at end of 2 s pulse to −30 mV
Description: Kv7.2/7.3 Activation Assay
The ability of compounds to potentiate K-currents in Kv7.2/7.3 containing HEK cells was assessed using planar patch-clamp on the QPatch automated screening platform.
The hKv7.2/7.3 cell line was obtained from Chantest (Cleveland, Ohio 44128) cat. #CT6147. These HEK cells will express the Kv7.2/7.3 ion channels when induced.
Cells were maintained in a media containing DMEM/F12; 50/50 (GIBCO cat. #11330), 10% Fetal Bovine Serum (FBS) (GIBCO cat. #26140), 100 units/mL Penicillin-Streptomycin (GIBCO cat. #15140), 0.005 mg/mL Blasticidin (INVIVOGEN cat. #ant-b1-1), 0.5 mg/mL Geneticin (GIBCO cat. #10131), 0.1 mg/mL Zeocin (GIBCO cat. #R25001). Cells used in the electrophysiology assay were maintained in a media without Blasticidin, Geneticin and Zeocin for 2 days and channel expression was induced by adding tetracycline (BIOLINE cat. #BIO-87030) at a final concentration of 1 mg/mL. Cells were grown in T-175 flask to ˜75% confluency. Currents were recorded 24 hours after channel induction.
Test compounds were prepared by performing serial dilutions on a Biomek NX^P (BECKMAN COULTER). Final dilutions were made in external recording solution with a final DMSO concentration of 0.1% DMSO. For single concentration screens each plate had 10 μM retigabine as a positive control and 0.1% DMSO as a negative control.
On the day of the experiment cells were washed with Hank's Balanced Salt Solution (HBBS) (GIBCO cat. #14175) and harvested with Tryple (GIBCO cat. #12604). Cells were then centrifuged at 2000 rpm for 5 minutes and resuspended in CHO-S-SFM (GIBCO cat. #12052) at ˜3×10^6 cells/mL. Cells were stirred for 30 minutes before experiments were started. External recording solution contained (in mM): NaCl (145), KCl (4), CaCl2 (2), MgCl2 (1), HEPES (10) and Glucose (10); pH was adjusted to 7.4 with NaOH and the osmolarity was adjusted to 300-305 mOsM with sucrose if necessary. Internal solution contained (in mM): KCl (125), KF (10), EGTA (5), Na2ATP (5), MgCl2 (3.2), HEPES (5); pH was adjusted to 7.2 with KOH and the osmolarity was adjusted to 298-302 mOsM with sucrose.
Potassium channel activity was measured on the QPatch HTX (Sophion Bioscience) using QPlates with 48-wells/plate. Each cell was taken as an independent experiment and only one compound was tested per well. Potassium channel activity was elicited by holding at −80 mV and stepping to −30 mV for 2 s followed by a 100 ms pulse to −120 mV.
Single Concentration Screen:
Baseline conditions were obtained by recording 5 sweeps in the external solution only, this was repeated for three applications of the external solution. The effect of test compounds on elicited current was then assessed by recording 5 sweeps in the presence of a 3 μM compound solution. The steady-state current at the end of the 2 s pulse to −30 mV was measured to determine the fold increase from baseline.

SMILES | Kv7.2/7.3 Activity: increase over baseline in current
CC(C)(O)c1ccc2nc(NC(=O)CC(C)(O)c3ccccc3)n(C34CC(C3)C4)c2c1 (single isomer, unassigned) [Example 335, N-(1-(bicyclo[1.1.1]pentan-1-yl)-6-(2-hydroxypropan-2-yl)-1H-benzo[d]imidazol-2-yl)-3-hydroxy-3-phenylbutanamide] | O
CC(O)(CC(=O)Nc1nc2c(F)cc(C#N)cc2n1C(C)(C)C)c1cccc(F)c1 (single isomer, unassigned) [Example 339, N-(1-(tert-butyl)-6-cyano-4-fluoro-1H-benzo[d]imidazol-2-yl)-3-(3-fluorophenyl)-3-hydroxybutanamide] | O
CC(C)(C)Cn1c(NC(=O)CC(C)(O)c2ccccc2)nc2ccc(C#N)cc21 (single isomer, unassigned) [Example 341, N-(6-cyano-1-neopentyl-1H-benzo[d]imidazol-2-yl)-3-hydroxy-3-phenylbutanamide] | + (1.2-2.9 (+))
CC(O)(CC(=O)Nc1nc2ccc(C#N)cc2n1CC1CC1)c1ccccc1 (single isomer, unassigned) [Example 344, N-(6-cyano-1-(cyclopropylmethyl)-1H-benzo[d]imidazol-2-yl)-3-hydroxy-3-phenylbutanamide] | + (1.2-2.9 (+))
CC(O)(CC(=O)Nc1nc2cc(Cl)c(C#N)cc2n1C1CCC1)c1ccccc1 (single isomer, unassigned) [Example 347, N-(5-chloro-6-cyano-1-cyclobutyl-1H-benzo[d]imidazol-2-yl)-3-hydroxy-3-phenylbutanamide] | + (1.2-2.9 (+))
CC(O)(CC(=O)Nc1nc2c(F)cc(C#N)cc2n1C(C)(C)C)c1ccccc1F (single isomer, unassigned) [Example 348, N-(1-(tert-butyl)-6-cyano-4-fluoro-1H-benzo[d]imidazol-2-yl)-3-(2-fluorophenyl)-3-hydroxybutanamide] | O
CC(O)(CC(=O)Nc1nc2cc(F)c(C#N)cc2n1C1CCC1)c1ccccc1 (single isomer, unassigned) [Example 350, N-(6-cyano-1-cyclobutyl-5-fluoro-1H-benzo[d]imidazol-2-yl)-3-hydroxy-3-phenylbutanamide] | + (1.2-2.9 (+))
COc1cccc2nc(NC(=O)CC(C)(O)c3ccccc3)n(C3CCC3)c12 (single isomer, unassigned) [Example 358, N-(1-cyclobutyl-7-methoxy-1H-benzo[d]imidazol-2-yl)-3-hydroxy-3-phenylbutanamide] | + (1.2-2.9 (+))
CC(=O)c1c(F)ccc2nc(NC(=O)CC(C)(O)c3ccccc3)n(C3(C)CCC3)c12 (single isomer, unassigned) [Example 360, N-(7-acetyl-6-fluoro-1-(1-methylcyclobutyl)-1H-benzo[d]imidazol-2-yl)-3-hydroxy-3-phenylbutanamide] | O
CC(C)(O)c1ccc2nc(NC(=O)CC(C)(O)c3ccccc3)n(C34CC(C3)C4)c2c1 (single isomer, unassigned) [Example 371, N-(1-(bicyclo[1.1.1]pentan-1-yl)-6-(2-hydroxypropan-2-yl)-1H-benzo[d]imidazol-2-yl)-3-hydroxy-3-phenylbutanamide] | O
CC(O)(CC(=O)Nc1nc2cc(F)c(C#N)cc2n1C1(C)CCC1)c1ccccc1F (single isomer, unassigned) [Example 373, N-(6-cyano-5-fluoro-1-(1-methylcyclobutyl)-1H-benzo[d]imidazol-2-yl)-3-(2-fluorophenyl)-3-hydroxybutanamide] | ++ (3-3.9 (++))
CC(O)(CC(=O)Nc1nc2ccc(OC(F)F)c(F)c2n1C1(C)CCC1)c1ccccc1 (single isomer, unassigned) [Example 374, N-(6-(difluoromethoxy)-7-fluoro-1-(1-methylcyclobutyl)-1H-benzo[d]imidazol-2-yl)-3-hydroxy-3-phenylbutanamide] | ++ (3-3.9 (++))
CC(O)(CC(=O)Nc1nc2cccc(C#N)c2n1C1(C)CCC1)c1ccccc1 (single isomer, unassigned) [Example 375, N-(7-cyano-1-(1-methylcyclobutyl)-1H-benzo[d]imidazol-2-yl)-3-hydroxy-3-phenylbutanamide] | + (1.2-2.9 (+))
CC(C)(O)c1ccc2nc(NC(=O)CC3CC(F)(F)C3(F)F)n(C3(C)CCC3)c2c1 (single isomer, unassigned) [Example 376, N-(6-(2-hydroxypropan-2-yl)-1-(1-methylcyclobutyl)-1H-benzo[d]imidazol-2-yl)-2-(2,2,3,3-tetrafluorocyclobutyl)acetamide] | + (1.2-2.9 (+))
CC(O)(CC(=O)Nc1nc2ccc(C#N)cc2n1C1(C)CCC1)c1c(F)cccc1F (single isomer, unassigned) [Example 384, N-(6-cyano-1-(1-methylcyclobutyl)-1H-benzo[d]imidazol-2-yl)-3-(2,6-difluorophenyl)-3-hydroxybutanamide] | ++ (3-3.9 (++))
CC(O)(CC(=O)Nc1nc2ccc(C#N)cc2n1CC(F)(F)F)c1ccccc1 (single isomer, unassigned) [Example 396, N-(6-cyano-1-(2,2,2-trifluoroethyl)-1H-benzo[d]imidazol-2-yl)-3-hydroxy-3-phenylbutanamide] | + (1.2-2.9 (+))
CC(C)(O)c1ccc2nc(NC(=O)CC3CC(F)(F)C3(F)F)n(C3CCC3)c2c1 (single isomer, unassigned) [Example 398, N-(1-cyclobutyl-6-(2-hydroxypropan-2-yl)-1H-benzo[d]imidazol-2-yl)-2-(2,2,3,3-tetrafluorocyclobutyl)acetamide] | + (1.2-2.9 (+))
CC(C)(O)c1cc(F)c2nc(NC(=O)CC3CC(F)(F)C3(F)F)n(C3CCC3)c2c1 (single isomer, unassigned) [Example 400, N-(1-cyclobutyl-4-fluoro-6-(2-hydroxypropan-2-yl)-1H-benzo[d]imidazol-2-yl)-2-(2,2,3,3-tetrafluorocyclobutyl)acetamide] | +++ (>4 (+++) fold increase over baseline)
CC(O)(CC(=O)Nc1nc2ccc(OC(F)F)cc2n1C1CCC1)c1ccccc1 (single isomer, unassigned) [Example 402, N-(1-cyclobutyl-6-(difluoromethoxy)-1H-benzo[d]imidazol-2-yl)-3-hydroxy-3-phenylbutanamide] | ++ (3-3.9 (++))
CC(C)(C)n1c(NC(=O)CC2CC(F)(F)C2(F)F)nc2c(F)cc(C#N)cc21 (single isomer, unassigned) [Example 416, N-(1-(tert-butyl)-6-cyano-4-fluoro-1H-benzo[d]imidazol-2-yl)-2-(2,2,3,3-tetrafluorocyclobutyl)acetamide] | ++ (3-3.9 (++))
CC(O)(CC(=O)Nc1nc2ccc(OC(F)F)cc2n1C(C)(C)C)c1ccccc1 (single isomer, unassigned) [Example 418, N-(1-(tert-butyl)-6-(difluoromethoxy)-1H-benzo[d]imidazol-2-yl)-3-hydroxy-3-phenylbutanamide] | ++ (3-3.9 (++))
